Key:
human URAT1 = human URAT1 (Homo sapiens (Human), UniProt Q96S37); experiment: 14C-uric acid uptake inhibition in URAT1 high-expression 293/hURAT1 cells; assay type: cell-based; conditions: 50 μM 14C-uric acid, 5 minutes at 37° C., read-out: URAT1 IC50 activity classification
Experimental: The transfected cells were assayed for ability to uptake uric acid labelled with radioisotope. The test compounds were then evaluated for their activity by determining of their ability to block uric acid uptake by the transfected cells.
293/h URAT1 cells were plated at a density of 40000 cells/well in poly D-lysine-coated 96-well plates (BD, 356461) and incubated overnight. The medium was removed and a pre-warmed reaction buffer was added (125 mM sodium gluconate, 4.8 mM potassium gluconate, 1.3 mM calcium gluconate, 1.2 mM potassium dihydrogen phosphate, 1.2 mM magnesium sulfate, 5.6 mM glucose, 25 mM HEPES, pH 7.4) before incubating at 37° C. for 10 minutes. The buffer was removed and another reaction buffer containing 50 μM ^14C-uric acid (American Radiolabeled Chemicals, ARC0513) and the test compounds or solvent control was added before incubating at 37° C. for 5 minutes. The buffer was removed, and the plates were washed 3 times with the buffer. Cells were lysed by adding 100 mM NaOH for 20 minutes. Cell lysates were transferred to Isoplate-96 well plates (PerkinElmer, 6005040), mixed with liquid scintillators and were counted in a MicroBeta^2 (PerkinElmer) counter.
The test compounds were all dissolved in DMSO, and DMSO of the same concentration without the test compounds was used as a solvent control. […] The IC50 of each compound was calculated using the percentage of inhibition at different concentrations.

hyperuricemia rat models = experiment: Therapeutic effect on potassium oxonate-induced hyperuricemia rat models (blood uric acid); assay type: in vivo, SD rats; conditions: for Blood uric acid concentration before drug administration: baseline, rat serum; for Blood uric acid concentration before drug administration / Blood uric acid concentration 7 days after drug administration: mean ± SD; for Blood uric acid concentration 7 days after drug administration: potassium oxonate 250 mg/kg/d i.p.; for Blood uric acid increase: 7 days vs before drug administration; for Effect on increment of blood uric acid levels compared with model control group (in words): 80 mg/kg/day and 40 mg/kg/day, potassium oxonate rat model
Experimental: Experimental animals: SD rats (SPF level), Laboratory Animal Center, Chinese Academy of Military Medical Sciences.
Rats weighing 200±20 g were fasted for 12 hours after a 1-week adaptive feeding period and were intraperitoneally injected with potassium oxonate (250 mg/kg/d) once daily for 7 consecutive days for modeling. The rats were closely observed after injection. […]
Blood samples were collected from the retro-orbital venous plexus before the preparation of the rat models and after administering the test compounds for 7 days. Serum was separated from the blood samples. Urine was collected using a metabolic cage for 24 hours and the supernatant was collected after centrifuge. Blood uric acid levels were measured using an automatic biochemical analyzer. The average increment in blood uric acid concentration was calculated for each group of animals.
SPSS 13.0 statistical software package was used to analyze the data. The data in each group were expressed as mean plus or minus standard deviation (x±s). The data were compared using a comparative t-test between groups, where p<0.05 was considered as statistically significant.

[1] = 40 mg/kg/d intragastric once daily for 7 days
[2] = 80 mg/kg/d intragastric once daily for 7 days

Sequence of human URAT1 (Q96S37 whole entry): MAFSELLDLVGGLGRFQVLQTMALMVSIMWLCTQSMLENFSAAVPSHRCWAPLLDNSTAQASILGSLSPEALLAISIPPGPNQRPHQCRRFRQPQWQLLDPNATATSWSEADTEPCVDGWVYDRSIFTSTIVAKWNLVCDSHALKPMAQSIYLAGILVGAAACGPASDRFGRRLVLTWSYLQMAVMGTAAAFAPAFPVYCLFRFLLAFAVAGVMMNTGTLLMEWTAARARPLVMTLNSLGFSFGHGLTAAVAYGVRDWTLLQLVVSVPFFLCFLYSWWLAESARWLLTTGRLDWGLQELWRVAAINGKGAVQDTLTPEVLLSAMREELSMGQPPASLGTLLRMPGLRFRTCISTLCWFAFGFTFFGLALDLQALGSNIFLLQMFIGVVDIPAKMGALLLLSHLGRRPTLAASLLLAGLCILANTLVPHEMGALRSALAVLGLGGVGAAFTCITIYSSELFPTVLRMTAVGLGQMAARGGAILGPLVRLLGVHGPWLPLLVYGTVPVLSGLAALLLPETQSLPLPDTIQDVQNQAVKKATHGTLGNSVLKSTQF

| SMILES | IC50 (human URAT1) | Blood uric acid concentration before drug administration (hyperuricemia rat models; 40 mg/kg/d group) | Blood uric acid concentration 7 days after drug administration (hyperuricemia rat models; [1]) | Blood uric acid increase (hyperuricemia rat models; 40 mg/kg/d) | Blood uric acid concentration before drug administration (hyperuricemia rat models; 80 mg/kg/d group) | Blood uric acid concentration 7 days after drug administration (hyperuricemia rat models; [2]) | Blood uric acid increase (hyperuricemia rat models; 80 mg/kg/d) | Effect on increment of blood uric acid levels compared with model control group (in words) (hyperuricemia rat models) |
| --- | --- | --- | --- | --- | --- | --- | --- | --- |
| COc1ccc2c(c1)nc(SC(C)(C)C(=O)O)n2-c1ccc(C#N)c2ccccc12 [Example I1, 2-methyl-2-[[5-methoxy-1-(4-cyanonaphth-1-yl)-1H-benzo[d]imidazol-2-yl]thio]propanoic acid] | 1 to 15 µM | 169.61 ± 19.57 µmol/L | 175.79 ± 16.54 µmol/L | 3.64% | 175.83 ± 16.39 µmol/L | 175.95 ± 15.43 µmol/L | 0.07% | could significantly reduce the increment of blood uric acid levels |
| CC(C)(Sc1nc2ccccc2n1-c1ccc([N+](=O)[O-])cc1F)C(=O)O [Example I7, 2-methyl-2-[[1-(4-nitro-2-fluorophenyl)-1H-benzo[d]imidazol-2-yl]thio]propanoic acid] | 30 to 100 µM | – | – | – | – | – | – | – |
| CC(C)(Sc1nc2ccccc2n1-c1ccccc1F)C(=O)O [Example I13, 2-methyl-2-[[1-(2-fluorophenyl)-1H-benzo[d]imidazol-2-yl]thio]propanoic acid] | 15 to 30 µM | – | – | – | – | – | – | – |
| CC(C)(Sc1nc2ccccc2n1-c1ccc(C2CC2)c2ccccc12)C(=O)O [Example I5, 2-methyl-2-[[1-(4-cyclopropylnaphth-1-yl)-1H-benzo[d]imidazol-2-yl]thio]propanoic acid] | 15 to 30 µM | – | – | – | – | – | – | – |
| CC(C)(Sc1nc2ccccc2n1-c1ccc(Cl)cc1F)C(=O)O [Example I12, 2-methyl-2-[[1-(4-chloro-2-fluorophenyl)-1H-benzo[d]imidazol-2-yl]thio]propanoic acid] | 15 to 30 µM | – | – | – | – | – | – | – |
| CC(C)(Sc1nc2ccccc2n1-c1ccc(C#N)c2ccccc12)C(=O)O [Example I2, 2-methyl-2-[[1-(4-cyanonaphth-1-yl)-1H-benzo[d]imidazol-2-yl]thio]propanoic acid] | 1 to 15 µM | 156.38 ± 12.62 µmol/L | 172.86 ± 9.37 µmol/L | 10.54% | 150.86 ± 20.46 µmol/L | 161.81 ± 8.38 µmol/L | 7.26% | could significantly reduce the increment of blood uric acid levels |
| CC(C)(Sc1nc2cc(Br)ccc2n1-c1ccc(C#N)c2ccccc12)C(=O)O [Example I3, 2-methyl-2-[[5-bromo-1-(4-cyanonaphth-1-yl)-1H-benzo[d]imidazol-2-yl]thio]propanoic acid] | 1 to 15 µM | 169.21 ± 14.24 µmol/L | 180.38 ± 14.36 µmol/L | 6.60% | 181.25 ± 24.86 µmol/L | 159.40 ± 13.99 µmol/L | −12.06% | could significantly reduce the increment of blood uric acid levels |
| CC(C)(Sc1nc2ccccc2n1-c1ccccc1)C(=O)O [Example I8, 2-methyl-2-[(1-phenyl-1H-benzo[d]imidazol-2-yl)thio]propanoic acid] | 30 to 100 µM | – | – | – | – | – | – | – |
| CC(C)(Sc1nc2ccccc2n1-c1ccc(C#N)cc1)C(=O)O [Example I4, 2-methyl-2-[[1-(4-cyanophenyl)-1H-benzo[d]imidazol-2-yl]thio]propanoic acid] | 1 to 15 µM | 142.57 ± 6.43 µmol/L | 173.05 ± 17.24 µmol/L | 21.38% | 158.38 ± 13.67 µmol/L | 177.24 ± 5.77 µmol/L | 11.90% | – |
| O=C(O)C(Sc1nc2ccccc2n1-c1ccc(C2CC2)c2ccccc12)c1ccc(Cl)cc1 (stereo not drawn) [Example I6, 2-(4-chlorophenyl)-2-[[1-(4-cyclopropylnaphth-1-yl)-1H-benzo[d]imidazol-2-yl]thio]acetic acid] | 15 to 30 µM | – | – | – | – | – | – | – |
| O=C(O)CSc1nnc(Br)n1-c1ccc(C2CC2)c2ccccc12 [Lesinurad, reference compound] | – | 156.02 ± 8.69 µmol/L | 172.57 ± 25.43 µmol/L | 10.61% | 161.20 ± 22.07 µmol/L | 166.85 ± 12.76 µmol/L | 3.50% | could reduce the increment of blood uric acid levels |
| CC(C)(Sc1nc2ccccc2n1-c1ccc(Br)cc1F)C(=O)O [Example I11, 2-methyl-2-[[1-(4-bromo-2-fluorophenyl)-1H-benzo[d]imidazol-2-yl]thio]propanoic acid] | 15 to 30 µM | – | – | – | – | – | – | – |

— patent US10336710B2, “Benzimidazole derivatives, preparation method therefor, and applications thereof” (BEIJING PHARMACEUTICAL GROUP CO., LTD., priority 2015, dated 2019)
